Assay results reported in paper PMC11783063, “Design, synthesis, and apoptotic antiproliferative action of new benzimidazole/1,2,3-triazole hybrids as EGFR inhibitors” (Frontiers in Chemistry, 2025).

Key:
[1] = test system: A-549 (lung cancer cell line); assay: Antiproliferative assay, A-549; type: cell-based, human; details: Homo sapiens, A549; read-out: Antiproliferative activity IC50 ± SEM, A-549
Description: (§1) Refer to Supplementary Appendix A for more information.
(§2) DMSO (0.1%) was used as control.

[2] = test system: MCF-7 (breast cancer cell line); assay: Antiproliferative assay, MCF-7; type: cell-based, human; details: Homo sapiens, MCF7; read-out: Antiproliferative activity IC50 ± SEM, MCF-7
Description: as §1, §2

[3] = test system: HT-29 (colon cancer cell line); assay: Antiproliferative assay, HT-29; type: cell-based, human; details: Homo sapiens, read-out: Antiproliferative activity IC50 ± SEM, HT-29
Description: as §1, §2

caspase-3 = assay: Caspase-3 activation assay in MCF-7 cells; type: cell-based, human; details: for Caspase-3 Conc: compound at its IC50 concentration; for Caspase-3 Fold change: vs untreated control
Description: (§3) Cells experience apoptosis in reaction to specific signaling cues, resulting in significant modifications. […] They decompose vital cellular components, including nuclear proteins, such as DNA repair enzymes and structural proteins within the cytoskeleton, essential for optimal cellular function.
(§4) Supplementary Appendix A provides more details.
Allow all reagents to reach room temperature before use. Gently mix all liquid reagents prior to use. Determine the number of 8-well strips needed for the assay. Insert these in the frame(s) for current use. Add 100 μl of the Standard Diluent Buffer to the zero standard wells. Well(s) reserved for chromogen blank should be left empty. Add 100 μl of standards and controls or diluted samples to the appropriate microtiter wells. The sample dilution chosen should be optimized for each experimental system. Tap gently on the side of plate to mix. Cover wells with plate cover and incubate for 2 hours at room temperature. Thoroughly aspirate or decant solution from wells and discard the liquid, Wash wells 4 times. […] Tap gently on the side of the plate to mix. Cover plate with plate cover and incubate for 1 hour at room temperature. Thoroughly aspirate or decant solution from wells and discard the liquid, Wash wells 4 times. Add 100 μl Anti-Rabbit IgG HRP Working Solution to each well except the chromogen blank(s). Prepare the working dilution as described in Preparing IgG HRP. Cover wells with the plate cover and incubate for 30 minutes at room temperature. Thoroughly aspirate or decant solution from wells and discard the liquid. Wash wells 4 times. Add 100 μl of Stabilized Chromogen to each well. The liquid in the wells will begin to turn blue. Incubate for 30 minutes at room temperature and in the dark. The incubation time for chromogen substrate is often determined by the microtiter plate reader used. […] The O.D. values should be monitored, and the substrate reaction stopped before the O.D. of the positive wells exceeds the limits of the instrument. The O.D. values at 450 nm can only be read after the Stop Solution has been added to each well. […] Add 100 μl of Stop Solution to each well. Tap side of plate gently to mix. The solution in the wells should change from blue to yellow. Read the absorbance of each well at 450 nm having blanked the plate reader against a chromogen blank composed of 100 μl each of Stabilized Chromogen and Stop Solution. Read the plate within 2 hours after adding the Stop Solution. Use a curve fitting software to generate the standard curve. […] Read the concentrations for unknown samples and controls from the standard curve. Multiply value(s) obtained for sample(s) by the appropriate dilution factor to correct for the dilution in step 3.

caspase-8 = assay: Caspase-8 activation assay in MCF-7 cells; type: cell-based, human; details: for Caspase-8 Conc: compound at its IC50 concentration; for Caspase-8 Fold change: vs untreated control
Experimental: as §3, §4
The absorbance of each microwell was read on a spectrophotometer at 450 nm. A standard curve is prepared from 7human Caspase-8 standard dilutions and human Caspase-8 concentration determined.

[4] = Cell viability assay (MTT) on MCF-10A normal cells; details: human, MCF-10A normal mammary gland epithelial cells
Experimental: (§5) The medium in which cells were propagated contained Dulbecco's modified Eagle's medium (DMEM)/ Ham's F-12 medium (1:1) supplemented with epidermal growth factor (20 ng/mL), hydrocortisone (500 ng/mL), insulin (10 μg/mL), 2 mM glutamine and 10% foetal calf serum. After every 2-3 days, the cells were passed using trypsin ethylenediamine tetra acetic acid (EDTA). The cells were seeded at a density of 10^4 cells mL^-1 in flat-bottomed culture plates containing 96 wells each. After 24 h, medium was removed from the plates and the compounds in (in 0.1% DMSO) were added (in 200 μL medium to yield a final concentration of 0.1% v/v) to the wells of plates. A single compound was designated with four wells followed by incubation of plates for 96h at 37°C. After incubation, medium was removed completely from the plates followed by addition of MTT (0.4 mg/mL in medium) to each well and subsequent incubation of plates for 3h. MTT (along with the medium) was removed and DMSO (150μL) was added to each well of the culture plates, followed by vortexing and subsequent measurement of absorbance (at 540 nm) using microplate reader.

[5] = test system: MCF-10A normal human mammary gland epithelial cell line; assay: Cell viability assay (MTT) on MCF-10A normal cells; details: dose of 50 μM
Experimental: as §5

IC50 [1] [nM]	IC50 [2] [nM]	IC50 [3] [nM]	Structure (SMILES)	Caspase-3 Conc (caspase-3) [pg/mL]	Caspase-3 Fold change (caspase-3)	Caspase-8 Conc (caspase-8) [ng/mL]	Caspase-8 Fold change (caspase-8)	viability at 4 days, 50 µM [4] [%]	Impact on non-tumor cells MCF-10A [5]
30 ± 2	28 ± 2	30 ± 2	NS(=O)(=O)c1ccc(-n2cc(CSc3nc4ccccc4[nH]3)nn2)cc1 [6i, 4-(4-(((1H-benzimidazol-2-yl)thio)methyl)-1H-1,2,3-triazol-1-yl)benzene-sulfonamide]	590 ± 5	9	1.60 ± 0.20	18	90	no impact
26 ± 2	24 ± 2	25 ± 2	O=[N+]([O-])c1cccc(-n2cc(Cn3c(SCc4ccccc4)nc4ccccc43)nn2)c1 [10e]	778 ± 6	12	1.75 ± 0.15	19	90	no impact
